From patent US10954237B2, “JAK inhibitors containing a 4-membered heterocyclic amide” (THERAVANCE BIOPHARMA R&D IP, LLC, priority 2017, dated 2021)

Experiments:
[1] = Pharmacokinetics in plasma and lung in mouse; assay type: in vivo; conditions: oral aspiration, lung AUC / plasma AUC
[2] = tested on: IL-5 mediated survival of human eosinophils; assay: IL-5 mediated eosinophil survival assay; assay type: cell-based
Method: The potency of the test compound for IL-5 mediated eosinophil survival was measured in human eosinophils isolated from human whole blood (AllCells). Because IL-5 signals through JAK, this assay provides a measure of JAK cellular potency.
Human eosinophils were isolated from fresh human whole blood (AllCells) of healthy donors. Blood was mixed with 4.5% Dextran (Sigma-Aldrich) in a 0.9% sodium chloride solution (Sigma-Aldrich). Red blood cells were left to sediment for 35 minutes. The leukocyte rich upper layer was removed and layered over Ficoll-Paque (GE Healthcare) and centrifuged at 600 g for 30 minutes. The plasma and mononuclear cell layers were removed before the granulocyte layer was lysed with water to remove any contaminating red blood cells. […] Purity was analyzed using a LSRII flow cytometer (BD Biosciences). […]
After cytokine stimulation, cells were centrifuged at 300 g for 5 min and washed twice with cold DPBS (Life Technologies). To access viability and apoptosis, cells were incubated with Propidium Iodide (Thermo Fisher Scientific) and APC Annexin V (BD Biosciences) and analyzed using a LSRII flow cytometer (BD Biosciences). IC50 values were determined from analysis of the viability curves of percent cell viability vs compound concentration. Data are expressed as pIC50 (negative decadic logarithm IC50) values.

[3] = tested on: IFNγ induced CXCL10 secretion; assay: IFNγ induced CXCL10 in human 3D airway cultures; assay type: cell-based
Method: EpiAirway tissue cultures were obtained from Mattek (AIR-100). Cultures were derived from asthmatic donors. In a cell culture insert, human derived tracheal/bronchial epithelial cells were grown and differentiated on a porous membrane support, allowing an air-liquid interface with warmed culture medium below the cells and a gaseous test atmosphere above. Tissues were cultured in maintenance media (Mattek, AIR-100-MM) in a 37° C., 5% CO2 humidified incubator. Four donors were tested. On Day 0, tissue cultures were treated with test compounds at 10 μM, 1 μM and/or 0.1 μM. Compounds were diluted in dimethyl sulfoxide (DMSO, Sigma) to a final concentration of 0.1%. DMSO at 0.1% was used as a vehicle control. Test compounds were incubated with cultures for 1 hour at 37° C., 5% CO2, followed by the addition of pre-warmed media containing IFNγ (R&D Systems) or IL-27 (R&D Systems) at a final concentration at 100 ng/ml. Tissue cultures were maintained for 8 days. Media was replaced every 2 days with fresh media containing compounds and IFNγ or IL-27. On Day 8, tissue cultures and supernatants were collected for analysis. […] Data is expressed as % Inhibition+/−standard deviation (±STDV). Percent inhibition was determined by compound inhibitory potency against IFNγ or IL-27 induced CXCL10 or CXCL9 secretion compared to vehicle treated cells. […]

[4] = tested on: IL-2/anti-CD3 stimulated IFNγ in human PBMCs; assay: Inhibition of IL-2/anti-CD3 stimulated IFNγ in human PBMCs; assay type: cell-based
Method: The potency of the test compound for inhibition of interleukin-2 (IL-2)/anti-CD3 stimulated interferon gamma (IFNγ) was measured in human peripheral blood mononuclear cells (PBMCs) isolated from human whole blood (Stanford Blood Center). Because IL-2 signals through JAK, this assay provides a measure of JAK cellular potency.
(1) Human peripheral blood mononuclear cells (PBMC) were isolated from human whole blood of healthy donors using a ficoll gradient. Cells were cultured in a 37° C., 5% CO2 humidified incubator in RPMI (Life Technologies) supplemented with 10% Heat Inactivated Fetal Bovine Serum (FBS, Life Technologies), 2 mM Glutamax (Life Technologies), 25 mM HEPES (Life Technologies) and 1× Pen/Strep (Life Technologies). Cells were seeded at 200,000 cells/well in media (50 μL) and cultured for 1 h. Compounds were serially diluted in DMSO and then diluted another 500-fold (to a 2× final assay concentration) in media. […]
(2) After cytokine stimulation, cells were centrifuged at 500 g for 5 min and supernatants removed and frozen at −80° C. To determine the inhibitory potency of the test compound in response to IL-2/anti-CD3, supernatant IFNγ concentrations were measured via ELISA (R&D Systems). IC50 values were determined from analysis of the inhibition curves of concentration of IFNγ vs compound concentration. Data are expressed as pIC50 (negative decadic logarithm IC50) values.

[5] = tested on: IL-6 stimulated STAT3 phosphorylation in CD3+ T cells; assay: Inhibition of IL-6 stimulated pSTAT3 in CD3+ T cells; assay type: cell-based, human
Excerpt: A protocol analogous to that of Assay 10 was used to determine the potency of the test compound for inhibition of interleuken-6 (IL-6) stimulated STAT3 phosphorylation. An Alexa Fluor 647 conjugated anti-pSTAT3 antibody (pY705, Clone 4/P, BD Biosciences) was used to detect STAT3 phosphorylation.

| SMILES | Lung to Plasma ratio Assay 3 [1] | IL-5 mediated human eosinophil survival (in words) [2] | inhibition at 10 µM [3] | anti-CD3 and IL-2 induced release of IFNγ from activated human peripheral blood-isolated T cells (in words) [4] | IL-6 signaling (in words) [5] |
| --- | --- | --- | --- | --- | --- |
| CCCN1Cc2[nH]c(-c3n[nH]c4cc(-c5cc(F)c(O)cc5CC)ccc34)nc2C[C@H]1C(=O)N1CC(N(C)C)C1 [Example 4, (S)-(3-(dimethylamino)azetidin-1-yl)(2-(6-(2-ethyl-5-fluoro-4-hydroxyphenyl)-1H-indazol-3-yl)-5-propyl-4,5,6,7-tetrahydro-3H-imidazo[4,5-c]pyridin-6-yl)methanone] | C (C denotes a ratio between 20 and 50) |  |  |  |  |
| CCc1cc(O)c(F)cc1-c1ccc2c(-c3nc4c([nH]3)CN(C(C)C)[C@H](C(=O)N3CC(N(C)C)C3)C4)n[nH]c2c1 [Example 2, (S)-(3-(dimethylamino)azetidin-1-yl)(2-(6-(2-ethyl-5-fluoro-4-hydroxyphenyl)-1H-indazol-3-yl)-5-isopropyl-4,5,6,7-tetrahydro-3H-imidazo[4,5-c]pyridin-6-yl)methanone] |  | potently inhibit | 101% | inhibit | inhibit |
